Test results published in patent US4533498A, “Compounds” (Beecham Group p.l.c., priority 1983, dated 1985).

What was measured:
dopamine receptor = experiment: Dopamine receptor blocking activity in the central nervous system: inhibition of apomorphine induced climbing in the mouse; format: in vivo; conditions: apomorphine 1 mg/kg s.c.; for inhibition of apomorphine induced climbing, result in words: printed beside ED50 10 mg/kg s.c.; for ED50 (inhibition of apomorphine induced climbing): scored at 10, 20 and 30 minutes
Procedure: Compounds were tested for inhibition of apomorphine induced climbing in the mouse. The test is based on that described by Protais, P., Constantin, J. and Schwartz, J. C. (1976), Psychopharmacology, 50, 1-6.
Apomorphine 1 mg/kg s.c. induces mice to climb the wall of a wire cage (inverted food hopper--11×7.5×18 cm high). Mice acclimatised in their home cages in groups of 5 are placed under the hoppers immediately after the injection of apomorphine 1 mg/kg s.c. At 10, 20 and 30 minutes after injection climbing behaviour is scored. The mice are observed for 30 seconds and scored according to the position they spend the majority of time in, score 0--four paws on floor of cage; score 1--fore paws only on walls; score 2--all paws on wall of cage. The scores at all 3 times and for each mouse are summed and mice drug treated compared to mice receiving apomorphine only. A saline only treated group is also included and any score, generally >5% of maximum taken into account.

intragastric pressure = experiment: Increase in intragastric pressure (conscious restrained rats, gastric fistula); format: in vivo, rat; conditions: 40 minute period after administration, Student's t test vs spontaneous activity
Procedure: Intragastric pressure changes were recorded from previously starved conscious but restrained rats using a saline filled catheter inserted into the lumen of the stomach via a permanent gastric fistula. The catheter was connected to a physiological pressure transducer and pressure changes recorded on a hot wire pen recorder. In each animal a pre-dose period of 40 minutes was allowed to obtain a measure of spontaneous activity. An index of activity was obtained by measuring the average height of pressure waves during 10 minute periods. Values for 4 such periods were obtained during assessment of spontaneous activity and for a 40 minute period after administration of compound. Student's `t` test was applied to the difference in average values obtained for spontaneous and post compound activity.

vomiting response = experiment: Anti-emetic activity in the dog: inhibition of apomorphine-induced vomiting response; format: in vivo; conditions: s.c. 30 minutes prior to apomorphine HCl 0.1 mg/kg s.c.; for ED50: Canis lupus familiaris, sc
Procedure: Compounds were administered subcutaneously 30 minutes prior to administration of a standard dose of apormorphine HCl (0.1 mg/kg subcutaneously) and the vomiting response compared to that obtained when the same animals were dosed with apomorphine HCl and vehicle only. The ED50 value for inhibition of the vomiting response determined for compounds (17), (29) and (30) was 0.1 mg/kg, and for compound (19) 0.01 mg/kg s.c.

SMILES | inhibition of apomorphine induced climbing, result in words (dopamine receptor) | ED50 (inhibition of apomorphine induced climbing) (dopamine receptor) [mg/kg s.c.] | index of activity (average height of pressure waves) post administration (intragastric pressure; 0.5 mg/kg s.c.) | ED50 value for inhibition of the vomiting response (vomiting response) [mg/kg] | ED50 (vomiting response) [mg/kg] | index of activity (average height of pressure waves) post administration (intragastric pressure; 1.0 mg/kg s.c.)
COc1cc(N)c(Cl)cc1C(=O)NC1CC2CC1CN2C (racemic) [Compound 26, (±) 4-amino-5-chloro-2-methoxy-N-[5-(2-methyl-2-azabicyclo(2.2.1)heptyl)]benzamide] | inactive | 10 | significantly increased the index of activity |  |  | 
COc1cc(N)c(Cl)cc1C(=O)NC1CC2CCC1CN2Cc1ccccc1 (racemic) [Compound 20, (±) 4-Amino-5-chloro-2-methoxy-N-(5-[2-benzyl-2-azabicyclo[2,2,2]octyl])benzamide] |  | 3.6 | significantly increased the index of activity |  |  | 
COc1cc(N)c(S(C)(=O)=O)cc1C(=O)NC1CC2CCC1CN2Cc1ccccc1 (stereo not shown) [Compound 30, 4-amino-2-methoxy-5-methylsulphonyl-N-[5-(2-benzyl-2-azabicyclo(2.2.2)octyl)]benzamide] |  |  |  | 0.1 |  | 
COc1cc(N)c(Cl)cc1C(=O)NC1CC2CCC1CN2C (racemic) [Compound 18, (±) 4-Amino-5-chloro-2-methoxy-N-(5-[2-methyl-2-azabicyclo[2,2,2]octyl]benzamide] | inactive | 10 | significantly increased the index of activity |  |  | 
COc1cc(N)c(Cl)cc1C(=O)NC1CC2CCC1CN2C (racemic) [Compound 17, (±)-4-Amino-5-chloro-2-methoxy-N-(5-[2-methyl-2-azabicyclo[2,2,2]octyl]benzamide] |  | 7.7 | significantly increased the index of activity |  | 0.1 | 
COc1cc(N)c(Cl)cc1C(=O)NC1CC2CCC1CN2Cc1ccccc1 (racemic) [Compound 19, (±)-4-Amino-5-chloro-2-methoxy-N-(5-[2-benzyl-2-azabicyclo[2,2,2]octyl]benzamide] |  | 0.36 |  |  | 0.01 | similarly active
COc1cc(N)c(S(C)(=O)=O)cc1C(=O)NC1CC2CCC1CN2Cc1ccccc1 (stereo not shown) [Compound 29, 4-amino-2-methoxy-5-methylsulphonyl-N-[5-(2-benzyl-2-azabicyclo(2.2.2)octyl)]benzamide] |  |  |  |  | 0.1 | 
